Results from PMC11528066, “Noninvasive Monitoring of Programmed Death-Ligand 2 Expression with Positron Emission Tomography using ^68Ga-labeled Peptide Antagonist in Preclinical and Exploratory Human Studies” (Research, 2024).
Read-outs that look alike come from different tables or passages of the source. Peptide text beside a SMILES is read from it. * marks the point of attachment. NOTA = O=C(O)CN1CCN(CC(=O)O)CCN(CC(=O)*)CC1; AEEEA = NCCOCCOCCOCC(=O)O

Tests used:
Type in all cases: in vivo, BALB/C nude mice
[1] = test system: A549 tumor xenograft models; assay: Dynamic micro-PET imaging in A549 xenografts; conditions: each time point 10 to 60 min, n = 3
Method: (§1) Micro-PET imaging was conducted using an Inveon PET scanner (Siemens, Germany). Dynamic PET examine were acquired over the first 60 min following the simultaneous injection of 7.4 to 9.25 MBq (200 to 250 μCi) of [^68Ga]Ga-HN11-1 and [^68Ga]Ga-HN11-2. After reconstructing the images and delineating the regions of interest (ROIs), time-radioactivity curves were plotted to obtain the Tumor/Muscle (T/M) ratios. %ID/g represents the percentage of the injected dose of the radiotracer that accumulates in a specific tissue per gram of tissue weight. For the biodistribution study, the xenograft models received an intravenous injection of 3.7 to 5.5 MBq (100 to 150 μCi) of [^68Ga]Ga-HN11-1. After the designated period (10, 30, 60, and 90 min), the mice were euthanized, and important tissues and organs were dissected and collected. The samples were counted using the γ-counter for determining the %ID/g, presented as mean ± standard deviation (SD).
A549 cell lines were provided by the China Center for Type Culture Collection (CCTCC) and cultured in RPMI-1640 medium supplemented with 10 % fetal bovine serum and 100 U/mL penicillin-streptomycin. The lentivirus system was implemented to introduce PD-L2 (PDCD1LG2) over-expressed cDNA into the A549 cells. […] Transfection efficiency was identified by WB and real-time quantitative PCR. […]

[2] = Biodistribution (γ-counter); conditions: male, BALB/C nude, mouse, iv, total radioactivity, mean ± SD, n = 3; for tissue uptake at 10 min / tissue to tissue ratio at 10 min: 10 min p.i.; for tissue uptake at 0.5 h / tissue to tissue ratio at 0.5 h: 30 min p.i.; for tissue uptake at 1.5 h / tissue to tissue ratio at 1.5 h: 90 min p.i.
Method: as §1
(§2) A549 cell lines were provided by the China Center for Type Culture Collection (CCTCC) and cultured in RPMI-1640 medium supplemented with 10 % fetal bovine serum and 100 U/mL penicillin-streptomycin. The lentivirus system was implemented to introduce PD-L2 (PDCD1LG2) over-expressed cDNA into the A549 cells. The viral vectors were produced in 293T cells and co-transfected with the psAX2, pMD2G and PD-L2 plasmids. A549 cells transduced with the vectors were selectively grown in 1.6 μg/mL puromycin. Transfection efficiency was identified by WB and real-time quantitative PCR. All the cells were cultured in an incubator at 37° C with 5 % CO2 atmosphere. A549 and A549-PD-L2 cells (5 × 10^6, 200 μL)were subcutaneously implanted into the right shoulder of BALB/C nude mice (male, 4-6 weeks), respectively. When the tumors reached to 5 - 8 mm in diameter, the mice were subjected to in vivo and ex vivo studies. All the mice were purchased from the Laboratory Animal Center of Central South University.

[3] = test system: A549-PD-L2 xenograft tumor models; assay: Biodistribution (γ-counter); conditions: mean ± SD, n = 3
Method: as §1, §2

[4] = large intestine, read-out: Large intestine uptake
[5] = muscle, read-out: Muscle uptake
[6] = small intestine, read-out: Small intestine uptake
[7] = tumor and blood, read-out: Tumor/Blood ratio
[8] = tumor and brain, read-out: Tumor/Brain ratio
[9] = tumor and heart, read-out: Tumor/Heart ratio
[10] = tumor and liver, read-out: Tumor/Liver ratio
[11] = tumor and lung, read-out: Tumor/Lung ratio
[12] = tumor and muscle, read-out: Tumor/Muscle ratio

CC[C@H](C)[C@H](NC(=O)[C@H](CCCNC(=N)N)NC(=O)CNC(=O)[C@H](CCC(=O)O)NC(=O)[C@H](CC(N)=O)NC(=O)[C@H](Cc1ccc(O)cc1)NC(=O)[C@H](CCCNC(=N)N)NC(=O)[C@H](Cc1ccc(O)cc1)NC(=O)[C@H](Cc1c[nH]cn1)NC(=O)COCCOCCOCCNC(=O)CN1CCN(CC(=O)O)CCN(CC(=O)O)CC1)C(=O)N[C@@H](CCCNC(=N)N)C(=O)N[C@@H](CC(N)=O)C(=O)O [[^68Ga]Ga-HN11-1, metal not drawn] ({NOTA-AEEEA}-HYRYNEGRIRN-OH)
tumor uptake in A549 tumor xenograft models [1]: almost negligible | tissue uptake at 10 min ([2]; bone, read-out: Bone uptake): 0.68 ± 0.06 %ID/g | tissue uptake at 0.5 h ([2]; bone, read-out: Bone uptake): 0.6 ± 0.03 %ID/g | tissue uptake at 1 h ([2]; bone, 60 min HN11-1 Block, read-out: Bone uptake): 0.43 ± 0.07 %ID/g | tissue uptake at 1 h ([2]; bone, 60 min p.i., read-out: Bone uptake): 0.41 ± 0.08 %ID/g | tissue uptake at 1.5 h ([2]; bone, read-out: Bone uptake): 0.31 ± 0.06 %ID/g | tissue uptake at 10 min ([2]; brain, read-out: Brain uptake): 0.17 ± 0.03 %ID/g | tissue uptake at 0.5 h ([2]; brain, read-out: Brain uptake): 0.12 ± 0.03 %ID/g | tissue uptake at 1 h ([2]; brain, 60 min HN11-1 Block, read-out: Brain uptake): 0.07 ± 0.01 %ID/g | tissue uptake at 1 h ([2]; brain, 60 min p.i., read-out: Brain uptake): 0.07 ± 0.01 %ID/g | tissue uptake at 1.5 h ([2]; brain, read-out: Brain uptake): 0.03 ± 0.01 %ID/g | tissue uptake at 10 min ([2]; kidney, read-out: Kidney uptake): 55.6 ± 6.6 %ID/g | tissue uptake at 10 min [2, 4]: 1.02 ± 0.06 %ID/g | tissue uptake at 0.5 h [2, 4]: 0.48 ± 0.09 %ID/g | tissue uptake at 1 h ([2]; large intestine, 60 min HN11-1 Block, read-out: Large intestine uptake): 0.23 ± 0.05 %ID/g | tissue uptake at 1 h ([2]; large intestine, 60 min p.i., read-out: Large intestine uptake): 0.21 ± 0.05 %ID/g | tissue uptake at 1.5 h [2, 4]: 0.1 ± 0.01 %ID/g | tissue uptake at 10 min [2, 5]: 0.89 ± 0.02 %ID/g | tissue uptake at 0.5 h [2, 5]: 0.69 ± 0.07 %ID/g | tissue uptake at 1 h ([2]; muscle, 60 min HN11-1 Block, read-out: Muscle uptake): 0.56 ± 0.04 %ID/g | tissue uptake at 1 h ([2]; muscle, 60 min p.i., read-out: Muscle uptake): 0.56 ± 0.09 %ID/g | tissue uptake at 1.5 h [2, 5]: 0.15 ± 0.03 %ID/g | tissue uptake at 10 min [2, 6]: 0.86 ± 0.09 %ID/g | tissue uptake at 0.5 h [2, 6]: 0.62 ± 0.04 %ID/g | tissue uptake at 1 h ([2]; small intestine, 60 min HN11-1 Block, read-out: Small intestine uptake): 0.34 ± 0.04 %ID/g | tissue uptake at 1 h ([2]; small intestine, 60 min p.i., read-out: Small intestine uptake): 0.21 ± 0.02 %ID/g | tissue uptake at 1.5 h [2, 6]: 0.16 ± 0.05 %ID/g | tissue to tissue ratio at 10 min [2, 7]: 0.58 ± 0.15 | tissue to tissue ratio at 0.5 h [2, 7]: 2.66 ± 0.47 | tissue to tissue ratio at 1 h ([2]; tumor and blood, 60 min p.i., read-out: Tumor/Blood ratio): 6.41 ± 0.98 | tissue to tissue ratio at 1.5 h [2, 7]: 2.58 ± 0.52 | tissue to tissue ratio at 1 h ([2]; tumor and blood, with HN11-1 (block; amount not stated), 60 min HN11-1 Block, read-out: Tumor/Blood ratio): 1.94 ± 0.67 | tissue to tissue ratio at 10 min [2, 8]: 10.3 ± 3.45 | tissue to tissue ratio at 0.5 h [2, 8]: 30.9 ± 8.94 | tissue to tissue ratio at 1 h ([2]; tumor and brain, 60 min p.i., read-out: Tumor/Brain ratio): 31.9 ± 7.97 | tissue to tissue ratio at 1.5 h [2, 8]: 12.3 ± 2.45 | tissue to tissue ratio at 1 h ([2]; tumor and brain, with HN11-1 (block; amount not stated), 60 min HN11-1 Block, read-out: Tumor/Brain ratio): 9.41 ± 2.19 | tissue to tissue ratio at 10 min [2, 9]: 1.15 ± 0.19 | tissue to tissue ratio at 0.5 h [2, 9]: 4.13 ± 0.21 | tissue to tissue ratio at 1 h ([2]; tumor and heart, 60 min p.i., read-out: Tumor/Heart ratio): 12.7 ± 2.22 | tissue to tissue ratio at 1.5 h [2, 9]: 3 ± 0.15 | tissue to tissue ratio at 1 h ([2]; tumor and heart, with HN11-1 (block; amount not stated), 60 min HN11-1 Block, read-out: Tumor/Heart ratio): 3.68 ± 1.43 | tissue to tissue ratio at 10 min [2, 10]: 0.56 ± 0.07 | tissue to tissue ratio at 0.5 h [2, 10]: 2.61 ± 0.82 | tissue to tissue ratio at 1 h ([2]; tumor and liver, 60 min p.i., read-out: Tumor/Liver ratio): 2.53 ± 0.75 | tissue to tissue ratio at 1.5 h [2, 10]: 2.13 ± 1.27 | tissue to tissue ratio at 1 h ([2]; tumor and liver, with HN11-1 (block; amount not stated), 60 min HN11-1 Block, read-out: Tumor/Liver ratio): 0.57 ± 0.27 | tissue to tissue ratio at 10 min [2, 11]: 1.04 ± 0.22 | tissue to tissue ratio at 0.5 h [2, 11]: 3.69 ± 0.24 | tissue to tissue ratio at 1 h ([2]; tumor and lung, 60 min p.i., read-out: Tumor/Lung ratio): 3.01 ± 0.53 | tissue to tissue ratio at 1.5 h [2, 11]: 1.05 ± 0.24 | tissue to tissue ratio at 1 h ([2]; tumor and lung, with HN11-1 (block; amount not stated), 60 min HN11-1 Block, read-out: Tumor/Lung ratio): 0.69 ± 0.23 | tissue to tissue ratio at 10 min [2, 12]: 1.82 ± 0.32 | tissue to tissue ratio at 0.5 h [2, 12]: 5.11 ± 0.25 | tissue to tissue ratio at 1 h ([2]; tumor and muscle, 60 min p.i., read-out: Tumor/Muscle ratio): 4.11 ± 1.25 | tissue to tissue ratio at 1.5 h [2, 12]: 2.66 ± 0.43 | tissue to tissue ratio at 1 h ([2]; tumor and muscle, with HN11-1 (block; amount not stated), 60 min HN11-1 Block, read-out: Tumor/Muscle ratio): 1.11 ± 0.27 | tissue uptake at 10 min ([2]; tumor, read-out: Tumor uptake): 1.61 ± 0.28 %ID/g | tissue uptake at 0.5 h ([2]; tumor, read-out: Tumor uptake): 3.52 ± 0.35 %ID/g | tissue uptake at 1 h ([2]; tumor, 60 min HN11-1 Block, read-out: Tumor uptake): 0.63 ± 0.18 %ID/g | tissue uptake at 1 h ([2]; tumor, 60 min p.i., read-out: Tumor uptake): 2.2 ± 0.3 %ID/g | tissue uptake at 1.5 h ([2]; tumor, read-out: Tumor uptake): 0.39 %ID/g | Blood uptake ([3]; 10 min p.i.): 2.83 ± 0.21 %ID/g | Heart uptake ([3]; 10 min p.i.): 1.41 ± 0.10 %ID/g | Liver uptake ([3]; 10 min p.i.): 2.90 ± 0.47 %ID/g | Lung uptake ([3]; 10 min p.i.): 1.56 ± 0.06 %ID/g | Spleen uptake ([3]; 10 min p.i.): 1.91 ± 0.14 %ID/g | Stomach uptake ([3]; 10 min p.i.): 1.27 ± 0.14 %ID/g | Blood uptake ([3]; 30 min p.i.): 1.34 ± 0.16 %ID/g | Heart uptake ([3]; 30 min p.i.): 0.85 ± 0.10 %ID/g | Kidney uptake ([3]; 30 min p.i.): 66.15 ± 0.73 %ID/g | Liver uptake ([3]; 30 min p.i.): 1.44 ± 0.31 %ID/g | Lung uptake ([3]; 30 min p.i.): 0.96 ± 0.09 %ID/g | Spleen uptake ([3]; 30 min p.i.): 0.86 ± 0.16 %ID/g | Stomach uptake ([3]; 30 min p.i.): 0.48 ± 0.04 %ID/g | Blood uptake ([3]; 60 min HN11-1 Block): 0.33 ± 0.02 %ID/g | Heart uptake ([3]; 60 min HN11-1 Block): 0.18 ± 0.02 %ID/g | Kidney uptake ([3]; 60 min HN11-1 Block): 76.77 ± 7.10 %ID/g | Liver uptake ([3]; 60 min HN11-1 Block): 1.20 ± 0.32 %ID/g | Lung uptake ([3]; 60 min HN11-1 Block): 0.92 ± 0.04 %ID/g | Spleen uptake ([3]; 60 min HN11-1 Block): 0.96 ± 0.17 %ID/g | Stomach uptake ([3]; 60 min HN11-1 Block): 0.26 ± 0.05 %ID/g | Blood uptake ([3]; 60 min p.i.): 0.34 ± 0.01 %ID/g | Heart uptake ([3]; 60 min p.i.): 0.18 ± 0.02 %ID/g | Kidney uptake ([3]; 60 min p.i.): 74.56 ± 3.78 %ID/g | Liver uptake ([3]; 60 min p.i.): 0.91 ± 0.14 %ID/g | Lung uptake ([3]; 60 min p.i.): 0.74 ± 0.04 %ID/g | Spleen uptake ([3]; 60 min p.i.): 0.51 ± 0.17 %ID/g | Stomach uptake ([3]; 60 min p.i.): 0.19 ± 0.03 %ID/g | Blood uptake ([3]; 90 min p.i.): 0.16 ± 0.03 %ID/g | Heart uptake ([3]; 90 min p.i.): 0.13 ± 0.01 %ID/g | Kidney uptake ([3]; 90 min p.i.): 87.01 ± 3.40 %ID/g | Liver uptake ([3]; 90 min p.i.): 0.28 ± 0.17 %ID/g | Lung uptake ([3]; 90 min p.i.): 0.40 ± 0.11 %ID/g | Spleen uptake ([3]; 90 min p.i.): 0.21 ± 0.04 %ID/g | Stomach uptake ([3]; 90 min p.i.): 0.20 ± 0.02 %ID/g
